{
  "source": "paper PMC4841536",
  "about": "“Characterization of the Anti-HCV Activities of the New Cyclophilin Inhibitor STG-175” (PLoS ONE, 2016)",
  "key": {"[1]": {"tested_on": "IL-2 promoter activation in Jurkat T-cell line", "experiment": "In vitro assay for immunosuppression: IL-2 promoter activation in engineered Jurkat T-cell line (betagalactosidase)", "format": "cell-based", "method": "IL-2 promoter activation upon T-cell stimulation was determined using an engineered Jurkat T-cell line, which expresses betagalactosidase when exposed to chemical non-specific factors like […] (PMA) and phytohematogglutinin (PHA) as described previously. DMSO or STG-175 were added together with PMA (10 ng/mL) to 1 million of Jurkat cells (triplicates). Betagalactosidase activity in cell lysates was quantified by fluorescence (460 nm) after 24 h.\nFig 1 Anti-PPIase and immunosuppressive activities of STG-175. A. Structures of cyclophilin inhibitors. Inhibition of CypA (B) and CypD (C) isomerase activities were assessed using the α-chymotrypsin-coupled assay. Each test compound was prepared at 10 concentrations (0.05–1000 nM). All solutions were equilibrated, and reactions conducted at 5°C. Reactions were initiated by mixing 95 μL reaction mix with 5 μL of the peptide to be cleaved and measuring OD405 nm at 6-sec intervals for 6 min. Data were fitted with Graphpad Prism 6.0 to obtain first-order rate constants. Enzyme catalyzed rate constants were calculated by subtracting the rate constant from uncatalyzed reactions (no CypA/D), and catalytic rate constants plotted as a function of inhibitor concentration to obtain IC50s. […] D. IL-2 promoter activation upon T-cell stimulation was determined using an engineered Jurkat T-cell line, which expresses betagalactosidase. Jurkat cells (1 million) were activated with PMA (10 ng/mL). […] The Y-axis values are expressed as percentage of activity. Data expressed as EC50s are representative of two independent experiments.\nThe formation of this trimolecular complex inhibits T cell proliferation by blocking the signaling pathway leading to IL-2 production upon T-cell stimulation. The immunosuppressive activity of STG-175 was evaluated by inhibition of the IL-2 production in Jurkat cells."}, "[2]": {"tested_on": "HBV AD38 in NTCP-Huh7 cells", "experiment": "Mono-infection, HBV HBeAg ELISA", "format": "cell-based, hepatitis B virus", "conditions": "0.5 and 5 μM, added together with virus, 12 days", "description": "For mono-infections: a) human hepatoma Huh7.5.1 cells were infected with HCV (JFH-1) and viral replication was quantified by HCV core ELISA (Ortho HCV antigen ELISA kit; Ortho Clinical Diagnostics, Waco Chemicals, Inc. or HCV Core ELISA, XpressBio); b) sodium-taurocholate co-transporting polypeptide (NTCP)-positive Huh7 cells were infected with hepatitis B virus (HBV) AD38 (produced from HepAD38 cells) and viral replication was quantified by HBV HBeAg ELISA; and c) human (peripheral blood monocytic cells (PBMCs) were infected with HIV-1 (JR-CSF) and viral replication was quantified by HIV-1 capsid/p24 ELISA. PBMCs were isolated as described previously. The Scripps Research Institute Normal Blood Donor Service (TSRI NBDS) provides TSRI investigators who have Human Subjects Committee-approved protocols with a source of normal blood for their research. Donors are assured of a controlled clinical setting for their blood to be drawn by licensed phlebotomists, and investigators are assured that the donors whose specimens they obtain through the service have been screened upon entry into the program and annually thereafter for a CBC, Hepatitis B and C and HIV-1. Hemoglobin determinations at every donation protect the donor from phlebotomy-induced anemia. […]"}},
  "data": [
    {"smiles": "CC=CCC(C)C(O)C1C(=O)NC(CC)C(=O)N(C)C(CSCCCCO)C(=O)N(C)C(CC(C)(C)O)C(=O)NC(C(C)C)C(=O)N(C)C(CC(C)C)C(=O)NC(C)C(=O)NC(C)C(=O)N(C)C(CC(C)C)C(=O)N(C)C(CC(C)C)C(=O)N(C)C(C(C)C)C(=O)N1C", "note": "(stereo not drawn) [STG-175]", "values": [
      {"measurement": "IC50", "setting": "[1]; Homo sapiens, Jurkat, 24 h, read-out: IC50, inhibition of IL-2 production (immunosuppressive activity)", "result": 159, "unit": "nM"},
      {"measurement": "times less immunosuppressive activity than CsA", "setting": "[1]; Jurkat IL-2", "result": "approximately 1000 times"},
      {"measurement": "HBV infection (HBeAg ELISA)", "setting": "[2]", "result": "significantly reduced"}
    ]}
  ]
}
